In patent US20250179550A1, “Methods to imbue polymeric materials with new structures and functions” (The Regents of the University of California, priority 2022, published 2025):

How the values were obtained:
[1] = system: MicD-F and ArtGox; assay: One-pot cyclodehydration and dehydrogenation of peptide substrates by MicD-F and ArtGox, LC-MS; type: biochemical, Microcystis aeruginosa; Arthrospira platensis
Source text: Next, we explored whether MicD-F and ArtGox could act in synergy to convert peptides containing non-α-amino acids at the +1 site directly into the corresponding thiazoles 3(a-i) (FIG. 9A). […] ArtGox efficiently oxidized each thiazoline to the corresponding thiazole in yields that exceeded 97% over the two steps for every example (products 3(a-i)) (FIGS. 9B and D). UHPLC analysis of each reaction mixture confirmed that thiazoles 3a-e were the sole reaction product. Coelution with excess flavin mononucleotide precluded UHPLC analysis of thiazoles 3f-i (FIG. 18).
Reactions were analyzed as described above. Under these conditions, every peptide evaluated was a substrate for MicD-F and a few were substrates for both MicD-F and ArtGox (FIG. 10B-C). Substrates containing β^3-amino acid-, β^2-amino acid-, or cyclic β^2,β^3-amino acids at the −1 site (substrates 4(a-d)), were fully consumed under these conditions (<1% unmodified peptide). […] In contrast, substrate 4b, with geminal β^2-methyl substituents, was converted into a 30/70 mixture of thiazoline 5b and thiazole 6b. Substrates 4e-g containing aramid monomers at the −1 position reacted more slowly under these conditions, producing the analogous thiazoline products in 65-85% yield after 24 h reaction at pH 8 (FIG. 10B-C). […] With the exception of substrate 4c, increasing the pH to 9.0 promoted formation of the desired thiazole product (FIG. 21B-C). However, even under these conditions only substrate 4b (88%) yielded greater than 41% thiazole product (FIG. 21B-C). […] ArtGox appears especially intolerant of substitution or sp^2 hybridization at the β^3-position of substrates at the −1 site.
A typical reaction scale for analysis via LC-MS was 30 μL. Peptide substrate stock (3 L) suspended at 1 mM in 10 mM bicine, 150 mM NaCl, 1 mM TCEP, pH 9.0 was added to 21 L of reaction buffer (7.14 mM ATP, 7.14 mM MgCl2, 2.86 mM FMN, 100 mM bicine, 150 mM NaCl, 1 mM TCEP, pH 8.0 or 9.0). Separately, aliquots of MicD-F (500 M in 20 mM HEPES, 150 mM NaCl, 1 mM TCEP, pH 7.4) and ArtGox (800 M in 20 mM HEPES, 150 mM NaCl, 1 mM TCEP, pH 7.4) were thawed on ice. The thawed enzyme aliquots were then diluted with cold storage buffer (20 mM HEPES, 150 mM NaCl, 1 mM TCEP, pH 7.4) to a concentration equal to 10× the desired enzyme concentration. The peptide and enzyme solutions were then incubated at 37° C. for 15 minutes. After temperature equilibration, enzyme solutions (3 μL of each) were added to the peptide solution and gently pipette mixed. The resulting solution was then incubated at 37° C. for the indicated amount of time before LC-MS analysis.
To remove 6×His-tagged enzymes, Ni-NTA (Qiagen, Hilden, Germany) slurry and crude reaction were mixed 1:1 by volume and incubated on ice for 30 minutes with occasional agitation. The Ni-NTA resin was then removed by centrifugation at 21,300×g for 10 minutes at 4° C. Enzyme-depleted reaction mixture (1 μL) was used for LC-MS analysis which was performed on an Agilent 1290 Infinity II HPLC connected to an Agilent 6530B QTOF AJS-ESI. The mobile phase for LC-MS was water and acetonitrile with 0.1% (v/v) formic acid and a flow rate of 0.7 mL/min. Each sample was injected onto an Eclipse XDB C-18 column (2.1×50 mm, 1.8-Micron, room temperature, Agilent) and separated using a linear gradient from 5 to 95% acetonitrile over 4.5 minutes after an initial hold at 5% acetonitrile for 0.5 minutes. The following parameters were used during acquisition: Fragmentor voltage 175 V, gas temperature 300° C., gas flow 8 L/min, sheath gas temperature 350° C., sheath gas flow 11 L/min, nebulizer pressure 35 psi, skimmer voltage 65 V, Vcap 3500 V, 1 spectra/s.

[2] = system: MicD-F; assay: MicD-F-catalyzed cyclodehydration of leader-free peptide substrates, LC-MS; type: biochemical, Microcystis aeruginosa; settings: pH 8.0, 37° C.; for cyclodehydration by MicD-F: 50 mol % MicD-F, 24 hours
MicD-F, sequence (as listed by the source): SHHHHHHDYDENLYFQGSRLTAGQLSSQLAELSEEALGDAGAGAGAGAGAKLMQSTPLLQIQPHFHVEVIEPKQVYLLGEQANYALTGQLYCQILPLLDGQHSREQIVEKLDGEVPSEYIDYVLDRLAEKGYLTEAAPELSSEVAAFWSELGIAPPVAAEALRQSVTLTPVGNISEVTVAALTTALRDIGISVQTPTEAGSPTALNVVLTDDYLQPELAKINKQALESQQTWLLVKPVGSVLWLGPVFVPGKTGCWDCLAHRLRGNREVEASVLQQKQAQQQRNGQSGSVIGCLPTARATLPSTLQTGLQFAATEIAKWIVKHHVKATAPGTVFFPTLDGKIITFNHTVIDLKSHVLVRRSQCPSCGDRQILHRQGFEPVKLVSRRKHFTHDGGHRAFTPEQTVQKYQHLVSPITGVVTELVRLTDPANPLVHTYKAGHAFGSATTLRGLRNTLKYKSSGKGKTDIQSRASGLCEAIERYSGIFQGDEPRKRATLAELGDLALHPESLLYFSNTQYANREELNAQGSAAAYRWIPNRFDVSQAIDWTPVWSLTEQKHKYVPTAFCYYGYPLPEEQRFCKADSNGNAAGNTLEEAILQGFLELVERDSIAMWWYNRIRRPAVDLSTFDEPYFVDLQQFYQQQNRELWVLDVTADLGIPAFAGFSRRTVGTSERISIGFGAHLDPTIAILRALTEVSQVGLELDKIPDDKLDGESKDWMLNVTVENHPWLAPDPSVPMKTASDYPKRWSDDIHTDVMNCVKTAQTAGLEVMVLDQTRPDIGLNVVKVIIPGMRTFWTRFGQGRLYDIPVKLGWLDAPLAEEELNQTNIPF
Procedure: We began by exploring the tolerance of MicD-F for sequences containing non-α-amino acid monomers at the +1 site (FIG. 8A and FIG. 9A-B). A series of nine potential substrates were prepared in which a non-α-amino acid preceded the reaction site (substrates 1(a-i)). Monomers evaluated included arenes, aramids, fluorophores, and linear and cyclic β-amino acids. […] Cyclization was analyzed initially via liquid chromatography-mass spectrometry (LC-MS) and the extent of product formation estimated by integrating the extracted ion chromatogram (FIG. 9B-C). Virtually every substrate examined underwent MicD-F-catalyzed cyclization to the corresponding thiazoline under these conditions. Substrates containing electron-withdrawing or donating aromatic rings, bulky multi-ring systems, and linear and cyclic β-amino acids were all cyclized efficiently by MicD-F, with yields between 91 and 99% (products 2(a-i)). UHPLC analysis of each reaction mixture confirmed that thiazolines 2a-i were the sole reaction products under these conditions (FIG. 16).
A typical reaction scale for analysis via LC-MS was 30 μL. Peptide substrate stock (3 μL) suspended at 1 mM (10 mM bicine, 150 mM NaCl, 1 mM TCEP, pH 9.0) was added to 24 μL of reaction buffer (6.25 mM ATP, 6.25 mM MgCl2, 100 mM bicine, 150 mM NaCl, 1 mM TCEP, pH 8.0 or 9.0). Separately, an aliquot of MicD-F (500 M in 20 mM HEPES, 150 mM NaCl, 1 mM TCEP, pH 7.4) was thawed on ice. The thawed enzyme aliquot was then diluted with cold storage buffer (20 mM HEPES, 150 mM NaCl, 1 mM TCEP, pH 7.4) to a concentration equal to 10× the desired enzyme concentration. The peptide and enzyme solutions were then incubated at 37° C. for 15 minutes. After temperature equilibration, enzyme solution (3 μL) was added to the peptide solution and gently pipette mixed. The resulting solution was then incubated at 37° C. for the indicated amount of time before LC-MS analysis.
To remove 6×His-tagged enzymes, Ni-NTA (Qiagen, Hilden, Germany) slurry and crude reaction were mixed 1:1 by volume and incubated on ice for 30 minutes with occasional agitation. […]

[3] = system: MicD-F and ArtGox; assay: Reaction of protein substrates with MicD-F and ArtGox in tandem, LC-MS deconvoluted mass; type: biochemical, Microcystis aeruginosa; Arthrospira platensis; settings: 50 mol % MicD-F, 80 mol % ArtGox, pH 9.0, 37° C., 24 hours
Procedure: Reactions of proteins with MicD-F and ArtGox were performed in the manner described above with minor modifications. The substrate stock was a 1 mM solution of protein in 20 mM HEPES, 150 mM NaCl, 1 mM TCEP, pH 7.4. Reactions were carried out at either 25° C. or 37° C. as indicated.
(§1) Unprocessed reaction mixture (1 μL) was used for LC-MS analysis which was performed on an Agilent 1290 Infinity II HPLC connected to an Agilent 6530B QTOF AJS-ESI. The mobile phase for LC-MS was water and acetonitrile with 0.1% (v/v) formic acid and a flow rate of 0.4 mL/min. Each sample was injected onto a Poroshell 300SB-C8 column (2.1×75 mm, 5-Micron, room temperature, Agilent) using a linear gradient from 5 to 55% acetonitrile over 8 minutes after an initial hold at 5% acetonitrile for 2 minutes (0.4 mL/min). The following parameters were used during acquisition: Fragmentor voltage 225 V, gas temperature 300° C., gas flow 10 L/min, sheath gas temperature 350° C., sheath gas flow 11 L/min, nebulizer pressure 35 psi, skimmer voltage 65 V, Vcap 5000 V, 1 spectra/s. Intact protein masses were obtained via deconvolution using the Maximum Entropy algorithm in Mass Hunter Bioconfirm (V10, Agilent).

[4] = system: MicD-F; assay: Reaction of protein substrates (mCherry and Rop variants) with MicD-F, LC-MS deconvoluted mass; type: biochemical, Microcystis aeruginosa; settings: 50 mol % MicD-F, 24 hours
Procedure: Reactions of proteins with MicD-F were performed in the manner described above with minor modifications. Namely, the substrate stock was a 1 mM solution of protein in 20 mM HEPES, 150 mM NaCl, 1 mM TCEP, pH 7.4.
as §1

[5] = 50 mol % MicD-F, 8 mol % ArtGox, pH 8.0, 37° C., 24 h
[6] = 50 mol % MicD-F, 8 mol % ArtGox, pH 8.0, 37° C., 24 h, −1 site substrates

For IC-[ACHC]-AYDG [substrate 4c], the “conversion into thiazoline” value [1, 5] was “converted cleanly” and the “thiazole formation” value [1, 5] was “no”.

For IC-[ACPC]-AYDG [substrate 4d], the “conversion into thiazoline” value [1, 5] was “converted cleanly” and the “thiazole formation” value [1, 5] was “no”.

With IC-[B2-Dimethyl]-AYDG [substrate 4b] the “yield of thiazole product” value [1, 6] was 70%, the “yield of thiazoline product” value [1, 6] was 30% and the “yield of thiazole product” value ([1]; 50 mol % MicD-F, 8 mol % ArtGox, pH 9.0, 37° C., 24 h, −1 site substrates) was 88%.

For IC-[B3-HIle]-AYDG [substrate 4a], the “conversion into thiazoline” value [1, 5] was “converted cleanly” and the “thiazole formation” value [1, 5] was “little”.

For ICAYDG [reference compound], the “conversion by MicD-F” value ([2]; 5 mol % MicD-F, 4 h) was “complete conversion” and the “two-step conversion into thiazole” value ([1]; 5 mol % MicD-F, 40 mol % ArtGox, pH 8.0, 37° C., 16 h) was “complete two-step conversion”.

“ICIAYDG [model peptide with α-amino acid Ile between the site of cyclization and the AYD motif, reference compound]” was tested, and the “cyclodehydration by MicD-F” value [2] was “complete reaction” and the “thiazole formation” value [1, 5] was “complete conversion”.

With ITAYDG the “cyclodehydration by MicD-F” value [2] was “significant cyclodehydration”.

With “mCherryC+: mCherry variant with MCAYDG appended to the C-terminus, SEQ ID NO: 9” the “thiazole installation (mass shift relative to MicD-F only)” value [3] was “expected −2 Da shift”, the “cyclodehydration of mCherry variants to thiazoline (loss of water)” value ([4]; pH 9.0, 37° C.) was “virtually complete conversion” and the “cyclodehydration of mCherry variants to thiazoline (loss of water)” value ([4]; pH 9.0, 42° C.) was “nearly completely converted”.
